Type in all cases: cell-based
In one test the test system is MDA-MB-231. Briefly: MTT cell viability assay, MDA-MB-231. As to conditions: Homo sapiens. The method, then: (§1) Cells were then treated with compound at various concentrations in 0.2 mL media. After the 72-hour incubation period, cells were washed in PBS (3×100 μL), and 10 μL MTT reagent was added with 100 μL fresh media. Cells were then incubated for 4 hr in a humidified chamber at 37° C. with 5% CO2. Insoluble formazan crystals were solubilized by addition of 0.1 mL detergent solution (4 hr at room temp., dark). Resulting colored solutions were then quantified at an absorbance of 570 nm.

A further test deals with MEF (C57BL/6). Put plainly: MTT cell viability assay, MEF (C57BL/6). The following applies: Mus musculus. As for the experimental part: as §1
The test system of a further test is MCF-7. Briefly: MTT cell viability assay, MCF-7. As to conditions: Homo sapiens, MTT, 72-hour incubation, read-out: IC50/μM MCF-7. The method, then:
as §1

Setting [1] is: MTT, 72-hour incubation, read-out: IC50/μM MEF (C57BL/6).
The mark [2] stands for this setting: MDA-MB-231, 72 h, 72-hour incubation.
[3] abbreviates: 72 h, read-out: IC50/μM MEF (C57BL/6), MTT, 72-hour incubation.

Read-outs that look alike come from different tables or passages of the source.

On to `CCn1c(=O)/c(=C2\Sc3cc(F)ccc3N2C)s/c1=C\c1scc[n+]1[C@@H](C)c1ccccc1` [JG-336], for which the IC50 in the test on MDA-MB-231 (MDA-MB-231, 72-hour incubation) turned out to be 0.21 ± 0.02 µM; with MEF (C57BL/6) (setting [1]), 2.2 ± 0.1 µM; with MCF-7 (MCF7) it was 0.18 ± 0.02 µM.

Regarding `CCn1c(=O)/c(=C2\Sc3cc(C)ccc3N2C)s/c1=C\c1scc[n+]1Cc1c(Cl)cccc1Cl` [JG-371], the IC50 with MDA-MB-231 (MDA-MB-231, 72-hour incubation) amounted to 0.07 ± 0.01 µM; with MEF (C57BL/6) (setting [1]) it was 0.68 ± 0.02 µM; in the test on MCF-7 (MCF7), 0.069 ± 0.004 µM.

Consider `CCn1c(=O)/c(=C2\Sc3cc(SC)ccc3N2C)s/c1=C\c1scc[n+]1Cc1ccccc1Cl` [JG-309], for which the IC50 was 0.13 ± 0.01 µM with MDA-MB-231 (setting [2]); 0.75 ± 0.05 µM with MEF (C57BL/6) (setting [3]); 0.15 ± 0.01 µM in the test with MCF-7 (MCF7, 72 h).

With `CCn1c(=O)/c(=C2\Sc3ccc(OC)cc3N2C)s/c1=C\c1scc[n+]1Cc1ccccc1OC` [JG-404], the IC50 turned out to be 0.3 ± 0.03 µM in the test on MDA-MB-231 (MDA-MB-231, 72-hour incubation); 1.3 ± 0.1 µM in the test with MEF (C57BL/6) (setting [1]); 0.79 ± 0.1 µM in the test with MCF-7 (MCF7).

Regarding `CCn1c(=O)/c(=C2\Sc3cc(OC)ccc3N2C)s/c1=C\c1scc[n+]1CCc1ccccc1C(F)(F)F` [JG-377], the IC50 in the test on MDA-MB-231 (MDA-MB-231, 72-hour incubation) was 0.19 ± 0.03 µM; in the test on MEF (C57BL/6) (setting [1]), > 10 µM; in the test with MCF-7 (MCF7), 0.12 ± 0.01 µM.

On to `CCn1c(=O)/c(=C2\Sc3cc(C(C)C)ccc3N2C)s/c1=C\c1scc[n+]1Cc1ccccc1Cl` [JG-323], for which the IC50 in the test with MDA-MB-231 (MDA-MB-231, 72-hour incubation) was determined as 0.19 ± 0.01 µM; in the test with MEF (C57BL/6) (setting [1]), 0.53 ± 0.02 µM; with MCF-7 (MCF7), 0.12 ± 0.01 µM.

Turning to `CCn1c(=O)/c(=C2\SCCN2C)s/c1=C\c1ccccn1` [JG-273], the IC50 in the test with MDA-MB-231 (MDA-MB-231, 72-hour incubation) is > 20 µM; in the test with MEF (C57BL/6) (setting [1]), > 10 µM; in the test on MCF-7 (MCF7), > 5 µM.

For the compound `CCn1c(=O)/c(=C2\Sc3ccc(OC)cc3N2C)s/c1=C\c1scc[n+]1Cc1ccccc1` [JG-376], the IC50 with MDA-MB-231 (setting [2]) was determined as 0.36 ± 0.05 µM; in the test on MEF (C57BL/6) (setting [1]), 1 ± 0.1 µM; in the test on MCF-7 (MCF7, 72 h) it was 0.37 ± 0.02 µM.

For the compound `CCn1c(=O)/c(=C2\Sc3cc(Cl)ccc3N2C)s/c1=C\c1scc[n+]1Cc1ccc(Cl)cc1` [JG-256], the IC50 with MDA-MB-231 (MDA-MB-231, 72-hour incubation) amounted to 1.1 ± 0.1 µM; with MEF (C57BL/6) (setting [1]), 2.2 ± 0.1 µM; in the test with MCF-7 (MCF7), 0.72 ± 0.06 µM.

`CCn1c(=O)/c(=C2\Sc3cc(Cl)ccc3N2C)s/c1=C\c1scc[n+]1Cc1nc(C)sc1C` [JG-274]: the IC50 in the test with MDA-MB-231 (MDA-MB-231, 72-hour incubation) was determined as 0.08 ± 0.008 µM; in the test on MEF (C57BL/6) (setting [1]), 4.2 ± 0.4 µM; with MCF-7 (MCF7), 0.098 ± 0.008 µM.

Regarding `CCn1c(=O)/c(=C2\Sc3cc(C)ccc3N2C)s/c1=C\c1scc[n+]1Cc1ccsc1C(=O)OC` [JG-248], the IC50 with MDA-MB-231 (MDA-MB-231, 72-hour incubation) was found to be 0.11 ± 0.01 µM; in the test with MEF (C57BL/6) (setting [1]), 1.2 ± 0.2 µM; with MCF-7 (MCF7), 0.14 ± 0.01 µM.

For `CCc1ccc2c(c1)S/C(=c1/s/c(=C\c3scc[n+]3Cc3cc(C)sc3C)n(CC)c1=O)N2C` [JG-347], the IC50 is 0.21 ± 0.01 µM with MDA-MB-231 (MDA-MB-231, 72-hour incubation); 0.6 ± 0.01 µM in the test with MEF (C57BL/6) (setting [1]); 0.095 ± 0.008 µM in the test with MCF-7 (MCF7).

For `CCn1c(=O)/c(=C2\Sc3cc(OC)ccc3N2C)s/c1=C\c1scc[n+]1C(C)c1ccccc1` (stereo not drawn) [JG-322], the IC50 in the test on MDA-MB-231 (MDA-MB-231, 72-hour incubation) was 0.15 ± 0.01 µM; in the test with MEF (C57BL/6) (setting [1]), 1.7 ± 0.1 µM; with MCF-7 (MCF7) it was 0.14 ± 0.01 µM.

In the case of `CCc1ccc2c(c1)S/C(=c1/s/c(=C\c3scc[n+]3Cc3ccccc3OC)n(CC)c1=O)N2C` [JG-346], the IC50 in the test on MDA-MB-231 (MDA-MB-231, 72-hour incubation) stood at 0.073 ± 0.007 µM; in the test on MEF (C57BL/6) (setting [1]), 0.71 ± 0.03 µM; with MCF-7 (MCF7), 0.11 ± 0.01 µM.

`C=CCn1c(=O)/c(=C2\Sc3cc(Cl)ccc3N2C)s/c1=C\c1scc[n+]1Cc1ccccc1` [JG-280]: the IC50 in the test on MDA-MB-231 (MDA-MB-231, 72-hour incubation) turned out to be 0.1 ± 0.01 µM; with MEF (C57BL/6) (setting [3]) it was 2.4 ± 0.1 µM; with MCF-7 (MCF7, 72 h), 0.17 ± 0.02 µM.

Take `CCn1c(=O)/c(=C2\Sc3cc(F)ccc3N2C)s/c1=C\c1scc[n+]1Cc1cnc(Cl)s1` [JG-260]: the IC50 with MDA-MB-231 (MDA-MB-231, 72-hour incubation) was 6.7 ± 0.5 µM; with MEF (C57BL/6) (setting [1]), 8.2 ± 0.4 µM; in the test with MCF-7 (MCF7), > 5 µM.

Take `CCn1c(=O)/c(=C2\Sc3ccc(C)cc3N2C)s/c1=C\c1scc[n+]1Cc1ccccc1C` [JG-366]: the IC50 with MDA-MB-231 (MDA-MB-231, 72-hour incubation) was determined as 0.22 ± 0.02 µM; with MEF (C57BL/6) (setting [1]), 0.99 ± 0.04 µM; in the test on MCF-7 (MCF7) it was 0.19 ± 0.01 µM.

With `CCn1c(=O)/c(=C2\Sc3cc(OC)ccc3N2C)s/c1=C\c1scc[n+]1CCc1ccc(Cl)cc1` [JG-396], the IC50 worked out at 0.2 ± 0.03 µM with MDA-MB-231 (MDA-MB-231, 72-hour incubation); 4 ± 0.2 µM in the test on MEF (C57BL/6) (setting [1]); 1.7 ± 0.3 µM in the test on MCF-7 (MCF7).

As for `CCn1c(=O)/c(=C2\Sc3cc(SC)ccc3N2C)s/c1=C\c1scc[n+]1Cc1cc(C)sc1C` [JG-359], the IC50 turned out to be 0.25 ± 0.01 µM with MDA-MB-231 (MDA-MB-231, 72-hour incubation); 1.6 ± 0.1 µM in the test with MEF (C57BL/6) (setting [1]); 0.21 ± 0.01 µM in the test on MCF-7 (MCF7).

`CCn1c(=O)/c(=C2\Sc3ccc(C)cc3N2C)s/c1=C\c1scc[n+]1Cc1occc1C(=O)OC` [JG-370]: the IC50 was 0.18 ± 0.02 µM in the test with MDA-MB-231 (MDA-MB-231, 72-hour incubation); 1.2 ± 0.1 µM in the test on MEF (C57BL/6) (setting [1]); 0.22 ± 0.01 µM in the test with MCF-7 (MCF7).

As to `CCn1c(=O)/c(=C2\Sc3cc(SC)ccc3N2C)s/c1=C\c1scc[n+]1C(C)c1ccccc1` (stereo not drawn) [JG-321], the IC50 in the test on MDA-MB-231 (MDA-MB-231, 72-hour incubation) was found to be 0.14 ± 0.01 µM; in the test with MEF (C57BL/6) (setting [1]) it was 1.8 ± 0.1 µM; in the test with MCF-7 (MCF7), 0.23 ± 0.03 µM.
